Assays:
[1] = test system: single shoots of Swietenia macrophylla; experiment: Rooting conditions (4): modified B5, then modified MS, then modified B5, one month each; format: cell-based
Method: (§1) A large number of shoots obtained in (4) were cut to single shoots which were cultured in the following procedures:
(4) The single shoots were cultured on a modified B5 medium containing 0 to 10.0 mg/l of IBA for one month, then on a modified MS medium containing 0 to 10.0 mg/l of IBA for one month and further on a modified B5 medium containing 0 to 10.0 mg/l of IBA for one month.
(§2) All the above (1)-(4) cultures were conducted under conditions wherein a temperature was 26±2° C., a humidity was 60 to 90% and a light intensity was 3,000 to 9,000 Lux. Further, all the modified media in the above (1)-(4) contained 2.8 g/l of gelright.

[2] = test system: single shoots of Swietenia macrophylla; experiment: Rooting conditions (2): modified MS medium for 3 months; format: cell-based
Method: as §1
(2) The single shoots were cultured on a modified MS medium containing 0 to 10.0 mg/l of IBA for 3 months, while transplanting the shoots to a fresh medium of the same composition every month.
as §2

O=C(O)CCCc1c[nH]c2ccccc12 [IBA, 3-indole butyric acid]
73.1%: Withering rate (%) For third one month ([2]; IBA 1.0 mg/l)
10.3%: Withering rate (%) For first one month ([2]; IBA 4.0 mg/l)
70.0%: Withering rate (%) For third one month ([1]; IBA 1.0 mg/l) | Withering rate (%) For third one month ([1]; IBA 3.0 mg/l) | Withering rate (%) For second one month ([1]; IBA 4.0 mg/l) | Withering rate (%) For first one month ([1]; IBA 10.0 mg/l)
70.4%: Withering rate (%) For third one month ([2]; IBA 3.0 mg/l)
3.7%: Rooting rate (%) For second one month ([2]; IBA 3.0 mg/l)
11.5%: Rooting rate (%) For third one month ([2]; IBA 2.0 mg/l)
66.7%: Withering rate (%) For third one month ([2]; IBA 2.5 mg/l)
84.6%: Withering rate (%) For first one month ([1]; IBA 0.1 mg/l) | Withering rate (%) For third one month ([2]; IBA 0.1 mg/l)
50.0%: Withering rate (%) For second one month ([1]; IBA 1.0 mg/l) | Withering rate (%) For third one month ([1]; IBA 2.0 mg/l) | Rooting rate (%) For third one month ([1]; IBA 2.5 mg/l) | Withering rate (%) For first one month ([1]; IBA 5.0 mg/l)
88.5%: Withering rate (%) For second one month ([1]; IBA 0.1 mg/l)
60.0%: Withering rate (%) For second one month ([1]; IBA 3.0 mg/l)
10.0%: Rooting rate (%) For third one month ([1]; IBA 1.0 mg/l) | Withering rate (%) For first one month ([1]; IBA 1.0 mg/l) | Rooting rate (%) For second one month ([1]; IBA 2.0 mg/l) | Rooting rate (%) For third one month ([1]; IBA 2.0 mg/l) | Rooting rate (%) For second one month ([1]; IBA 3.0 mg/l)
96.6%: Withering rate (%) For third one month ([2]; IBA 4.0 mg/l)
3.8%: Rooting rate (%) For second one month ([2]; IBA 1.0 mg/l) | Rooting rate (%) For third one month ([2]; IBA 1.0 mg/l) | Rooting rate (%) For second one month ([2]; IBA 2.0 mg/l)
69.2%: Withering rate (%) For second one month ([2]; IBA 0.1 mg/l)
65.4%: Withering rate (%) For first one month ([2]; IBA 10.0 mg/l)
30.0%: Rooting rate (%) For second one month ([1]; IBA 2.5 mg/l)
20.0%: Rooting rate (%) For third one month ([1]; IBA 3.0 mg/l)
13.3%: Rooting rate (%) For second one month ([2]; IBA 2.5 mg/l)
0.0%: Rooting rate (%) For first one month ([1]; IBA 0.1 mg/l) | Rooting rate (%) For second one month ([1]; IBA 0.1 mg/l) | Rooting rate (%) For third one month ([1]; IBA 0.1 mg/l) | Rooting rate (%) For first one month ([1]; IBA 1.0 mg/l) | Rooting rate (%) For second one month ([1]; IBA 1.0 mg/l) | Rooting rate (%) For first one month ([1]; IBA 2.0 mg/l) | Withering rate (%) For first one month ([1]; IBA 2.0 mg/l) | Rooting rate (%) For first one month ([1]; IBA 2.5 mg/l) | Withering rate (%) For first one month ([1]; IBA 2.5 mg/l) | Rooting rate (%) For first one month ([1]; IBA 3.0 mg/l) | Withering rate (%) For first one month ([1]; IBA 3.0 mg/l) | Rooting rate (%) For first one month ([1]; IBA 4.0 mg/l) | Rooting rate (%) For second one month ([1]; IBA 4.0 mg/l) | Rooting rate (%) For third one month ([1]; IBA 4.0 mg/l) | Rooting rate (%) For first one month ([1]; IBA 5.0 mg/l) | Rooting rate (%) For second one month ([1]; IBA 5.0 mg/l) | Rooting rate (%) For third one month ([1]; IBA 5.0 mg/l) | Rooting rate (%) For first one month ([1]; IBA 10.0 mg/l) | Rooting rate (%) For second one month ([1]; IBA 10.0 mg/l) | Rooting rate (%) For third one month ([1]; IBA 10.0 mg/l) | Rooting rate (%) For first one month ([2]; IBA 0.1 mg/l) | Rooting rate (%) For second one month ([2]; IBA 0.1 mg/l) | Rooting rate (%) For third one month ([2]; IBA 0.1 mg/l) | Withering rate (%) For first one month ([2]; IBA 0.1 mg/l) | Rooting rate (%) For first one month ([2]; IBA 1.0 mg/l) | Withering rate (%) For first one month ([2]; IBA 1.0 mg/l) | Rooting rate (%) For first one month ([2]; IBA 2.0 mg/l) | Withering rate (%) For first one month ([2]; IBA 2.0 mg/l) | Rooting rate (%) For first one month ([2]; IBA 2.5 mg/l) | Withering rate (%) For first one month ([2]; IBA 2.5 mg/l) | Rooting rate (%) For first one month ([2]; IBA 3.0 mg/l) | Withering rate (%) For first one month ([2]; IBA 3.0 mg/l) | Rooting rate (%) For first one month ([2]; IBA 4.0 mg/l) | Rooting rate (%) For second one month ([2]; IBA 4.0 mg/l) | Rooting rate (%) For third one month ([2]; IBA 4.0 mg/l) | Rooting rate (%) For first one month ([2]; IBA 5.0 mg/l) | Rooting rate (%) For second one month ([2]; IBA 5.0 mg/l) | Rooting rate (%) For third one month ([2]; IBA 5.0 mg/l) | Rooting rate (%) For first one month ([2]; IBA 10.0 mg/l) | Rooting rate (%) For second one month ([2]; IBA 10.0 mg/l) | Rooting rate (%) For third one month ([2]; IBA 10.0 mg/l)
26.7%: Withering rate (%) For second one month ([2]; IBA 2.5 mg/l)
80.8%: Withering rate (%) For second one month ([2]; IBA 10.0 mg/l)
100.0%: Withering rate (%) For third one month ([1]; IBA 0.1 mg/l) | Withering rate (%) For third one month ([1]; IBA 4.0 mg/l) | Withering rate (%) For third one month ([1]; IBA 5.0 mg/l) | Withering rate (%) For second one month ([1]; IBA 10.0 mg/l) | Withering rate (%) For third one month ([1]; IBA 10.0 mg/l) | Withering rate (%) For third one month ([2]; IBA 5.0 mg/l) | Withering rate (%) For third one month ([2]; IBA 10.0 mg/l)
90.0%: Withering rate (%) For second one month ([1]; IBA 5.0 mg/l)
46.2%: Withering rate (%) For second one month ([2]; IBA 1.0 mg/l) | Withering rate (%) For first one month ([2]; IBA 5.0 mg/l)
55.6%: Withering rate (%) For second one month ([2]; IBA 3.0 mg/l)
58.6%: Withering rate (%) For second one month ([2]; IBA 4.0 mg/l)
16.7%: Rooting rate (%) For third one month ([2]; IBA 2.5 mg/l)
40.0%: Withering rate (%) For second one month ([1]; IBA 2.0 mg/l) | Withering rate (%) For second one month ([1]; IBA 2.5 mg/l) | Withering rate (%) For third one month ([1]; IBA 2.5 mg/l) | Withering rate (%) For first one month ([1]; IBA 4.0 mg/l)
76.9%: Withering rate (%) For third one month ([2]; IBA 2.0 mg/l) | Withering rate (%) For second one month ([2]; IBA 5.0 mg/l)
11.1%: Rooting rate (%) For third one month ([2]; IBA 3.0 mg/l)
30.8%: Withering rate (%) For second one month ([2]; IBA 2.0 mg/l)
